Patent publication US11365410B2, “Production and monitoring of metabolites in cells” (President and Fellows of Harvard College, priority 2015, dated 2022)

Experiments:
[1] = system: prpR-based 3HP biosensor (pcs, prpC, prpR); assay: prpR-based 3HP biosensor characterization; format: cell-based, E. coli
From the text: (§1) According to a first aspect, 3-HP is transformed into 2-methylcitrate in the presence of a 2-methylcitrate sensor. The resulting system is a 3-HP biosensor. The transcriptional regulator prpR from E. coli is used to control gene expression in proportion to the concentration of 2-methylcitrate inside the cell. This inducible system has been described previously with the aim of sensing propionate—a distinct chemical from 3HP (WO 2007005837 A3, http://www.ncbi.nlm.nih.gov/pubmed/16269719). The endogenous enzyme, 2-methylcitrate synthase (prpC), and the heterologous multifunctional enzyme propionyl-CoA synthase (pcs) from the carbon fixation pathway of Chloroflexus aurantiacus (see Mattozzi, M., Ziesack, M., Voges, M. J., Silver, P. A. and Way, J. C. (2013) Expression of the sub-pathways of the Chloroflexus aurantiacus 3-hydroxypropionate carbon fixation bicycle in E. coli: Toward horizontal transfer of autotrophic growth. Metab Eng, 16, 130-139 hereby incorporated by reference in its entirety) are used to produce 2-methylcitrate from 3-HP. Together the system of three genes (pcs, prpC, prpR) comprises the prpR-based 3HP biosensor (see FIG. 15A). […] As a result of this linkage, 3-HP concentration controls expression of green fluorescent protein (GFP). […] The proportion of 2-methylcitrate produced in this way is proportional to the amount of 3-HP inside the cell. The expression of the controlled gene is thus a measurement of intracellular 3-HP concentration.
DH5α cells doubly transformed with plasmids pPro24-GFP and pJKR-PCS, or plasmids pJKR-H-acuR and pJKR-PCSfrag-ACH, were exposed to increasing concentrations of 3-HP and monitored for GFP expression. Cells were grown overnight to saturation before being diluted 1:100 into fresh LB media and incubated at 200 RPM and 37° C. After four hours, 150 μl of the log-phase cells were transferred to 96-well plates and 3HP was added to the appropriate final concentration. Each inoculation and induction was performed in triplicate. Strains lacking the biosensor helper plasmids were included to reveal that the biosensor activation was indeed dependent on the presence of the helper plasmids. In the case of the end-point measurements, fluorescence was measured 16 hours after 3-HP addition with a Biotek HT plate reader (excitation 485/20, emission 528/20). Time course data was collected over a 16 hour period on the same plate reader at 37° C. with fast shaking and 10 minute measurement intervals. Fluorescence was normalized by optical density. Fold induction was determined by dividing the fluorescence obtained at the current induction level by the fluorescence obtained without induction. Error bars represent the 95% confidence interval derived from the standard error of the mean.

prpR (E. coli) = assay: prpR-based 3HP biosensor induction (indirect, via 2-methylcitrate); format: cell-based; conditions: 12 mM 3-HP; with pcs and prpC
From the text: as §1, with “The expression of the controlled gene is thus a measurement of intracellular 3-HP concentration.” left out

acuR = assay: acuR-based 3HP biosensor induction (indirect, via acrylate); format: cell-based, Rhodobacter sphaeroides; conditions: 10 mM 3HP; with pcs^Δ3 and ach
Description: Metab Eng, 16, 130-139 hereby incorporated by reference in its entirety). All three reactions are useful for a prpR-based biosensor, but for the acuR-based biosensor, accumulation of acrylyl-CoA rather than propionyl-CoA is necessary. […] Accordingly, the domain responsible for conversion of acrylyl-CoA to propionyl-CoA was removed while preserving the activity of the other two domains. […] A 90-fold increase in fluorescence was obtained when the acuR-based biosensor was induced with 10 mM 3HP. […] Fluorescence remained at background levels for greater than 16 hours in the absence of pcs^Δ3 and ach (see FIG. 17).
Plasmids were constructed using Gibson isothermal assembly methods (see Gibson, D. G., Young, L., Chuang, R. Y., Venter, J. C., Hutchison, C. A., 3rd and Smith, H. O. (2009) Enzymatic assembly of DNA molecules up to several hundred kilobases. Nat Methods, 6, 343-345 hereby incorporated by reference in its entirety) and cloned into DH5α electrocompetent cells purchased from New England Biolabs. Biosynthesis of product molecules was carried out in either BL21 (DE3) or DH5α. The prpR-based 3HP biosensor was implemented as a two-plasmid system. The first plasmid is pPro24-GFP (Addgene plasmid #18880), which expresses GFPuv under the control of the methyl-citrate responsive transcription factor, prpR, on a pBR322 origin of replication providing β-lactam resistance. […]

`O=C(O)CCO` [3-HP, 3-hydroxypropionate] was tested, and the “time to half-maximal fluorescent response” value ([1]; 3-HP induction) was 5 h, the “time to reach 90% induction” value ([1]; 3-HP induction) was “approximately 8 hours” and the “fluorescent response, fold greater than uninduced fluorescence” value ([1]; induced with 12 mM 3-HP) was 2.4 fold. For the same molecule, the “response of prpR sensor alone” value ([1]; without helper enzyme pcs) was “cannot detect”, the “Fluorescent response relative to uninduced” value (prpR (E. coli)) was 2.4 fold and the Increase in fluorescence (acuR) was 90 fold.
